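Five concentrations, 48 hours, 96-well plates. At the GI50, growth is halved.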 Activity calls are given as the source filed them. Cut-off read from the data, not from the text of the source: active = GI50 up to about 1.1 µM and inactive = higher.
Tests used:
Assay in all cases: NCI tumour cell line growth inhibition, 48 h
MOLT-4 = test system: MOLT-4
TK-10 = test system: TK-10
SF-268 = test system: SF-268
DU-145 = test system: DU-145
HCT-15 = test system: HCT-15
UO-31 = test system: UO-31
NCI-H23 = test system: NCI-H23
HOP-62 = test system: HOP-62
NCI-H460 = test system: NCI-H460
HT-29 = test system: HT-29
U-251 = test system: U-251
SF-539 = test system: SF-539
MDA-MB-435 = test system: MDA-MB-435
SNB-75 = test system: SNB-75
EKVX = test system: EKVX
SK-MEL-28 = test system: SK-MEL-28
OVCAR-4 = test system: OVCAR-4
Malme-3M = test system: Malme-3M
K562 = test system: K562
ACHN = test system: ACHN
A498 = test system: A498
Hs-578T = test system: Hs-578T
KM12 = test system: KM12
RPMI-8226 = test system: RPMI-8226
SNB-19 = test system: SNB-19
786-0 = test system: 786-0
SF-295 = test system: SF-295
HOP-92 = test system: HOP-92
T47D = test system: T47D
IGROV-1 = test system: IGROV-1
UACC-62 = test system: UACC-62
UACC-257 = test system: UACC-257
RXF 393 = test system: RXF 393
HL-60 = test system: HL-60
CCRF-CEM = test system: CCRF-CEM
MDA-MB-231 = test system: MDA-MB-231
A549 = test system: A549
HCT-116 = test system: HCT-116
OVCAR-8 = test system: OVCAR-8
SN12C = test system: SN12C
COLO 205 = test system: COLO 205
SK-MEL-5 = test system: SK-MEL-5
M14 = test system: M14
SR = test system: SR
NCI/ADR-RES = test system: NCI/ADR-RES
OVCAR-5 = test system: OVCAR-5
MCF7 = test system: MCF7
NCI-H226 = test system: NCI-H226
SW-620 = test system: SW-620
HCC 2998 = test system: HCC 2998
SK-OV-3 = test system: SK-OV-3
OVCAR-3 = test system: OVCAR-3
NCI-H522 = test system: NCI-H522
CAKI-1 = test system: CAKI-1
MDA-N = test system: MDA-N
LOX IMVI = test system: LOX IMVI
PC-3 = test system: PC-3

With `O=C(CCC(=O)CC(O)(C(F)(F)F)C(F)(F)F)CC(O)(C(F)(F)F)C(F)(F)F` the GI50 (MOLT-4) was 41.3 µM (inactive), the GI50 (TK-10) was 56.9 µM (inactive) and the GI50 (SF-268) was 71.6 µM (inactive). For the same compound, the GI50 (DU-145) was 53.1 µM (inactive), the GI50 (HCT-15) was 35 µM and the GI50 (UO-31) was 23.5 µM (inactive). For the same compound, the GI50 (NCI-H23) was 30.8 µM (inactive), the GI50 (HOP-62) was 52.5 µM (inactive) and the GI50 (NCI-H460) was > 10 µM (inactive). For the same compound, the GI50 (HT-29) was 29.7 µM (inactive), the GI50 (U-251) was 65 µM (inactive) and the GI50 (SF-539) was 67.6 µM (inactive). The GI50 (MDA-MB-435) was 47.9 µM (inactive), the GI50 (SNB-75) was 82.8 µM (inactive) and the GI50 (EKVX) was 35 µM (inactive). The GI50 (SK-MEL-28) was > 100 µM (inactive), the GI50 (OVCAR-4) was 33 µM (inactive) and the GI50 (Malme-3M) was 42.1 µM (inactive). The GI50 (K562) was 33.4 µM (inactive), the GI50 (ACHN) was 33.7 µM (inactive) and the GI50 (A498) was 0.151 µM (active). For the same compound, the GI50 (Hs-578T) was 29.4 µM (inactive), the GI50 (KM12) was 26.4 µM (inactive) and the GI50 (RPMI-8226) was 26.7 µM (inactive). The GI50 (SNB-19) was 24 µM (inactive), the GI50 (786-0) was 46.1 µM (inactive) and the GI50 (SF-295) was 32.1 µM (inactive). For the same compound, the GI50 (HOP-92) was 20.7 µM (inactive), the GI50 (T47D) was 29.2 µM (inactive) and the GI50 (IGROV-1) was 29.7 µM (inactive). The GI50 (UACC-62) was 31.7 µM (inactive), the GI50 (UACC-257) was 34.4 µM (inactive) and the GI50 (RXF 393) was > 100 µM (inactive). The GI50 (HL-60) was 33.7 µM (inactive), the GI50 (CCRF-CEM) was 42.1 µM (inactive) and the GI50 (MDA-MB-231) was 29.4 µM (inactive). The GI50 (A549) was 46.8 µM (inactive), the GI50 (HCT-116) was 46.9 µM (inactive) and the GI50 (OVCAR-8) was 42.4 µM (inactive). The GI50 (SN12C) was 42.6 µM (inactive), the GI50 (COLO 205) was 29.2 µM (inactive) and the GI50 (SK-MEL-5) was 55.7 µM (inactive). The GI50 (M14) was 41.2 µM (inactive), the GI50 (SR) was 47.9 µM (inactive) and the GI50 (NCI/ADR-RES) was 61.7 µM (inactive). For the same compound, the GI50 (OVCAR-5) was > 100 µM (inactive), the GI50 (MCF7) was 37.8 µM (inactive) and the GI50 (NCI-H226) was 18.8 µM (inactive). For the same compound, the GI50 (SW-620) was 63.5 µM (inactive), the GI50 (HCC 2998) was 58.1 µM (inactive) and the GI50 (SK-OV-3) was > 100 µM (inactive).
With `Nc1ccc(Nc2cc(O)nc(O)n2)cc1` the GI50 (MOLT-4) was > 100 µM (inactive), the GI50 (TK-10) was > 100 µM (inactive) and the GI50 (SF-268) was > 100 µM (inactive). For the same compound, the GI50 (DU-145) was > 100 µM (inactive), the GI50 (HCT-15) was > 100 µM and the GI50 (OVCAR-3) was > 100 µM (inactive). For the same compound, the GI50 (NCI-H522) was > 100 µM (inactive), the GI50 (NCI-H23) was > 100 µM (inactive) and the GI50 (HOP-62) was > 100 µM (inactive). For the same compound, the GI50 (CAKI-1) was > 100 µM (inactive), the GI50 (NCI-H460) was > 100 µM (inactive) and the GI50 (HT-29) was > 100 µM (inactive). The GI50 (U-251) was > 100 µM (inactive), the GI50 (SF-539) was > 100 µM (inactive) and the GI50 (MDA-MB-435) was > 100 µM (inactive). For the same compound, the GI50 (EKVX) was > 100 µM (inactive), the GI50 (SK-MEL-28) was > 100 µM (inactive) and the GI50 (OVCAR-4) was > 100 µM (inactive). The GI50 (Malme-3M) was > 100 µM (inactive), the GI50 (K562) was > 100 µM (inactive) and the GI50 (ACHN) was > 100 µM (inactive). For the same compound, the GI50 (MDA-N) was > 100 µM (inactive), the GI50 (A498) was > 100 µM (inactive) and the GI50 (Hs-578T) was > 100 µM (inactive). For the same compound, the GI50 (KM12) was > 100 µM (inactive), the GI50 (RPMI-8226) was > 100 µM (inactive) and the GI50 (SNB-19) was > 100 µM (inactive). For the same compound, the GI50 (786-0) was > 100 µM (inactive), the GI50 (SF-295) was > 100 µM (inactive) and the GI50 (LOX IMVI) was > 100 µM (inactive). The GI50 (T47D) was 39.3 µM (inactive), the GI50 (IGROV-1) was > 100 µM (inactive) and the GI50 (UACC-62) was > 100 µM (inactive). The GI50 (UACC-257) was > 100 µM (inactive), the GI50 (HL-60) was > 100 µM (inactive) and the GI50 (CCRF-CEM) was > 100 µM (inactive). For the same compound, the GI50 (MDA-MB-231) was > 100 µM (inactive), the GI50 (A549) was > 100 µM (inactive) and the GI50 (HCT-116) was > 100 µM (inactive). The GI50 (OVCAR-8) was > 100 µM (inactive), the GI50 (SN12C) was > 100 µM (inactive) and the GI50 (SK-MEL-5) was > 100 µM (inactive). The GI50 (SR) was > 100 µM (inactive), the GI50 (NCI/ADR-RES) was > 100 µM (inactive) and the GI50 (MCF7) was > 100 µM (inactive). The GI50 (NCI-H226) was > 100 µM (inactive), the GI50 (SW-620) was > 100 µM (inactive) and the GI50 (PC-3) was > 100 µM (inactive). For the same compound, the GI50 (HCC 2998) was > 100 µM (inactive) and the GI50 (SK-OV-3) was > 100 µM (inactive).
`C[n+]1c(-c2ccc(/C=N/N=C/c3ccc(-c4cn5ccccc5[n+]4C)cc3)cc2)cn2ccccc21` was tested, and the GI50 (MOLT-4) was > 100 µM (inactive), the GI50 (TK-10) was > 100 µM (inactive) and the GI50 (SF-268) was > 100 µM (inactive). For the same compound, the GI50 (HCT-15) was > 100 µM, the GI50 (UO-31) was > 100 µM (inactive) and the GI50 (NCI-H522) was > 100 µM (inactive). The GI50 (HOP-62) was > 100 µM (inactive), the GI50 (NCI-H460) was > 100 µM (inactive) and the GI50 (HT-29) was > 100 µM (inactive). For the same compound, the GI50 (U-251) was > 100 µM (inactive), the GI50 (SF-539) was > 100 µM (inactive) and the GI50 (MDA-MB-435) was > 100 µM (inactive). The GI50 (SNB-75) was > 100 µM (inactive), the GI50 (EKVX) was > 100 µM (inactive) and the GI50 (SK-MEL-28) was > 100 µM (inactive). For the same compound, the GI50 (OVCAR-4) was > 100 µM (inactive), the GI50 (K562) was > 100 µM (inactive) and the GI50 (ACHN) was > 100 µM (inactive). For the same compound, the GI50 (MDA-N) was > 100 µM (inactive), the GI50 (Hs-578T) was > 100 µM (inactive) and the GI50 (KM12) was > 100 µM (inactive). For the same compound, the GI50 (RPMI-8226) was > 100 µM (inactive), the GI50 (SNB-19) was > 100 µM (inactive) and the GI50 (786-0) was > 100 µM (inactive). For the same compound, the GI50 (SF-295) was > 100 µM (inactive), the GI50 (T47D) was > 100 µM (inactive) and the GI50 (IGROV-1) was > 100 µM (inactive). For the same compound, the GI50 (UACC-257) was > 100 µM (inactive), the GI50 (HL-60) was > 100 µM (inactive) and the GI50 (CCRF-CEM) was > 100 µM (inactive). The GI50 (MDA-MB-231) was > 100 µM (inactive), the GI50 (A549) was > 100 µM (inactive) and the GI50 (HCT-116) was > 100 µM (inactive). For the same compound, the GI50 (OVCAR-8) was > 100 µM (inactive), the GI50 (SN12C) was > 100 µM (inactive) and the GI50 (COLO 205) was > 100 µM (inactive). The GI50 (SK-MEL-5) was > 100 µM (inactive), the GI50 (M14) was > 100 µM (inactive) and the GI50 (SR) was > 100 µM (inactive). For the same compound, the GI50 (NCI/ADR-RES) was > 100 µM (inactive), the GI50 (OVCAR-5) was > 100 µM (inactive) and the GI50 (MCF7) was > 100 µM (inactive). For the same compound, the GI50 (SW-620) was > 100 µM (inactive), the GI50 (PC-3) was > 100 µM (inactive) and the GI50 (HCC 2998) was > 100 µM (inactive). For the same compound, the GI50 (SK-OV-3) was > 100 µM (inactive).

Reference: ChEMBL document CHEMBL1201862, “PubChem BioAssay data set” (2004)
